From ChEMBL document CHEMBL1201862, “PubChem BioAssay data set” (2004)
The source made the active and inactive calls.

How the values were obtained:
[1] = target: FAD-linked sulfhydryl oxidase ALR (Homo sapiens, UniProt P55789); test: ALR-catalysed DTT oxidation blockers – biochemical, H2O2 detection, luminescence, cherry-pick, dose response (AID 493248)
Fatty acid synthase [2] = target: T1, Fatty acid synthase (Homo sapiens, UniProt P49327); test: inhibition of human FAS-TE enzyme activity – biochemical, kinetic fluorescence intensity, dose response (AID 624326); format: functional;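 also: rate of fluorescence rise from hydrolysis of a fluorogenic O-methyl fluorescein ester substrate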
T1 sequence (P49327 whole entry): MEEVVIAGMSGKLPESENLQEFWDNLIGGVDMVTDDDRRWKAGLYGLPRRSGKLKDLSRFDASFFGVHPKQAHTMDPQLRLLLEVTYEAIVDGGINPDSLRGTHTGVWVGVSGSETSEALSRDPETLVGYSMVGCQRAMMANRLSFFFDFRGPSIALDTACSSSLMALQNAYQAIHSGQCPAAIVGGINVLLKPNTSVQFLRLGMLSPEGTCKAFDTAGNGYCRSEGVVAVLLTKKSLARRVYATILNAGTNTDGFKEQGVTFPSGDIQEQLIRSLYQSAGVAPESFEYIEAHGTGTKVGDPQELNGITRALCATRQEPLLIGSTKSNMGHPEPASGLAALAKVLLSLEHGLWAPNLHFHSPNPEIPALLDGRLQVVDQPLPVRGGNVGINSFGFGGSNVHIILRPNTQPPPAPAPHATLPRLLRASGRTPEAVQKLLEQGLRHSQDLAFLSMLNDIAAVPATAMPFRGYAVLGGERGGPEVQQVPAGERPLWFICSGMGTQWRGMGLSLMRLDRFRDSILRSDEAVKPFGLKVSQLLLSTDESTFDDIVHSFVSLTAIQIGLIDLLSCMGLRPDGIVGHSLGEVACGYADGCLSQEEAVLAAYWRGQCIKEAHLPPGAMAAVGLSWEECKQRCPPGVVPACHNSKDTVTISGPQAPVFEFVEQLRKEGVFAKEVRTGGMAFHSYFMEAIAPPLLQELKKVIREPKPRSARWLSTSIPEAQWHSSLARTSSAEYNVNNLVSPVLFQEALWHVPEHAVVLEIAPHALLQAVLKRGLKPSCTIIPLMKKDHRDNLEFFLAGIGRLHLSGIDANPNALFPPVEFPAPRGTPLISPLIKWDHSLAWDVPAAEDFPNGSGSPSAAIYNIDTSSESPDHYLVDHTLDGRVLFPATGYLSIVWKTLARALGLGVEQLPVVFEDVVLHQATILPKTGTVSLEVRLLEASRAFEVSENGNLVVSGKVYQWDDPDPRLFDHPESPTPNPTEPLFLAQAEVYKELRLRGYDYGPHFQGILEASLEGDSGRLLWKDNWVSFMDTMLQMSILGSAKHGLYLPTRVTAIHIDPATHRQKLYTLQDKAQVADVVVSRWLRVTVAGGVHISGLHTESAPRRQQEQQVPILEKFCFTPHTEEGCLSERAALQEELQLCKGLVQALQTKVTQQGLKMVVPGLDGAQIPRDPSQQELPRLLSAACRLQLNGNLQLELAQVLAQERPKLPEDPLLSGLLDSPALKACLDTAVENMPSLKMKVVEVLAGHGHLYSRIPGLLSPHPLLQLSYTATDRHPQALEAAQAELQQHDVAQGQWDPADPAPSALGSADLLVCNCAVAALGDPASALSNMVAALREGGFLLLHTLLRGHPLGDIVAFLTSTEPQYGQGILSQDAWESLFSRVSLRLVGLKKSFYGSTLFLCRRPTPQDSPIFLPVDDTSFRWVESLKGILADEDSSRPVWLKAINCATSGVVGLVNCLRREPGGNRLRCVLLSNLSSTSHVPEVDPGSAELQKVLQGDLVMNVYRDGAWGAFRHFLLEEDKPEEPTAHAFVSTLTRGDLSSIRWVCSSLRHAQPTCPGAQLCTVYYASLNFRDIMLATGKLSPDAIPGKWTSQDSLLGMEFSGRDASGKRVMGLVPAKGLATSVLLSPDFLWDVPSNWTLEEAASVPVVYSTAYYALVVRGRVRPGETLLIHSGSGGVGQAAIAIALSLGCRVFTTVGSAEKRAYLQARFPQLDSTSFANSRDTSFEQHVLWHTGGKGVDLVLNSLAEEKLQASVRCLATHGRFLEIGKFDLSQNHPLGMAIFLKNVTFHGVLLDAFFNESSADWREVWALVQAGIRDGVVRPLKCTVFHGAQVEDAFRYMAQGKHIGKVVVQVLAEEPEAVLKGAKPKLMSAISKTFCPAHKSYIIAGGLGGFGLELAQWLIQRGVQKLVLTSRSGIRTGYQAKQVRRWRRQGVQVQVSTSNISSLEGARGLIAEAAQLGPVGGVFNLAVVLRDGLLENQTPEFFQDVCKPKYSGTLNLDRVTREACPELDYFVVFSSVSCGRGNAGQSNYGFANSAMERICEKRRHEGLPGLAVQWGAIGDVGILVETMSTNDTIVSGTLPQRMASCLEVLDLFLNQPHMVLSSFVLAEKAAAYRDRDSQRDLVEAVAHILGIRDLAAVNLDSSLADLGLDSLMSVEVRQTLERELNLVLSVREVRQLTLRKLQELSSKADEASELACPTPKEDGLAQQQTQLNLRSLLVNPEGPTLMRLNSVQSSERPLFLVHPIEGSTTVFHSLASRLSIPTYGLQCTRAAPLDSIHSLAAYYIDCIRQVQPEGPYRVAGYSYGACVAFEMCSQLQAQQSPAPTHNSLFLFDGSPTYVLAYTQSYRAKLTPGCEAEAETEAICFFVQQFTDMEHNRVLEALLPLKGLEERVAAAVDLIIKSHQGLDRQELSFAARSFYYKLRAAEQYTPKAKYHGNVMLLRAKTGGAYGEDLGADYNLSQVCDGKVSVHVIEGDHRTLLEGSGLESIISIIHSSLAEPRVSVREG

Fatty acid synthase [3] = target: T1, Fatty acid synthase; test: inhibition of human FAS-TE enzyme activity – biochemical, endpoint fluorescence intensity, uHTS hits, dose response (AID 624327); format: functional;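 also: fluorescence from hydrolysis of an O-methyl fluorescein acyl ester substrate by the enzyme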
Cytochrome P450 2C9 = Cytochrome P450 2C9 (Homo sapiens, UniProt P11712)
Cytochrome P450 2C9, sequence (P11712 whole entry): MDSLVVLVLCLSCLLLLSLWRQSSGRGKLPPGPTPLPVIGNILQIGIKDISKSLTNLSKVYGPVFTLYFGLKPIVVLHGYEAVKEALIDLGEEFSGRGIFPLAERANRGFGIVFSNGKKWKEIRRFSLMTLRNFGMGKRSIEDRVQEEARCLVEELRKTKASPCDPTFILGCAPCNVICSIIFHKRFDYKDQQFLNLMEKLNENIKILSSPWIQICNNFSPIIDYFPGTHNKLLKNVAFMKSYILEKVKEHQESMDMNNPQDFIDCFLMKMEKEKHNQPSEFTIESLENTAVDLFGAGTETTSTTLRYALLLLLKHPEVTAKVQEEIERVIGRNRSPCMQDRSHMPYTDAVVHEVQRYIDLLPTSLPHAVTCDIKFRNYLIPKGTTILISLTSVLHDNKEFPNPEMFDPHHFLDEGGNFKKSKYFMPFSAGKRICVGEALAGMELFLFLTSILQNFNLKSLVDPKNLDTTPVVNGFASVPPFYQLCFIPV

[4] = NIH-3T3 fibroblast cytotoxicity, dose response, cytotoxicity control, cell-based, fluorescence, Alamar Blue, secondary assay (AID 2327); format: functional;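 also: NIH-3T3 mouse fibroblasts cultured with fluconazole at 8 µg/mL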
[5] = fluconazole-exposed Candida albicans growth modulators – fluorescence, retest, confirmation (AID 2467); format: functional, cell-based
cells [6] = format: functional, cell-based
cells [7] = format: functional, cell-based; remark: listed apart in the source
[8] = Luminescence Cell-Based Dose Confirmation HTS to Identify Activators of 5'UTR Stem-Loop Driven Alpha-Synuclein mRNA Translation in H4 Neuroglioblastoma Cells. [Related pubchem assays: 1829 (Project Summary), 1814 (Primary HTS)]; format: functional
H4 = test: Luminescence Cell-Based Dose Response HTS to Identify Activators of 5'UTR Stem-Loop Driven Prion Protein mRNA Translation in H4 Neuroglioblastoma Cells. [Related pubchem assays: 1829 (Project Summary), 1814 (Primary HTS)]; format: functional; settings: Homo sapiens
[9] = Luminescence Cell-Based Dose Response HTS to Identify Activators of Luciferase Translation or Activity in H4 […] Cells. [Related pubchem assays: 1829 (Project Summary), 1814 (Primary HTS)]; format: functional
[10] = target: T2, Calpain-2 catalytic subunit (Sus scrofa, UniProt P43367); test: m-calpain protease blockers, concentration series – biochemical, fluorogenic peptide substrate, dose response (AID 1420); format: functional
T2 sequence (P43367 whole entry): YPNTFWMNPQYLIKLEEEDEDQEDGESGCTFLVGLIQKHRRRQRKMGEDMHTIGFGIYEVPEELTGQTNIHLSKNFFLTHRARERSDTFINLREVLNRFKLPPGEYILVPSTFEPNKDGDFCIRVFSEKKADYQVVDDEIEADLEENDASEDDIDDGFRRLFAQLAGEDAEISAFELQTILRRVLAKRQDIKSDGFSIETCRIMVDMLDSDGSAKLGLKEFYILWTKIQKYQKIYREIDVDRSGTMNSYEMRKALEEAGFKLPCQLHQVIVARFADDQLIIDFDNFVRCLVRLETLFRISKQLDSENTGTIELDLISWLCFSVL

Genome polyprotein = Genome polyprotein (dengue virus type 2, UniProt P29990); test: flavivirus cap methylation enzyme inhibition – biochemical, confirmation dose response, primary screen (AID 588689); format: functional
Cytochrome P450 1A2 = target: T3, Cytochrome P450 1A2 (Homo sapiens, UniProt P05177);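 also: PubChem cytochrome P450 panel assay, CYP1A2 panel member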
T3 sequence (P05177 whole entry): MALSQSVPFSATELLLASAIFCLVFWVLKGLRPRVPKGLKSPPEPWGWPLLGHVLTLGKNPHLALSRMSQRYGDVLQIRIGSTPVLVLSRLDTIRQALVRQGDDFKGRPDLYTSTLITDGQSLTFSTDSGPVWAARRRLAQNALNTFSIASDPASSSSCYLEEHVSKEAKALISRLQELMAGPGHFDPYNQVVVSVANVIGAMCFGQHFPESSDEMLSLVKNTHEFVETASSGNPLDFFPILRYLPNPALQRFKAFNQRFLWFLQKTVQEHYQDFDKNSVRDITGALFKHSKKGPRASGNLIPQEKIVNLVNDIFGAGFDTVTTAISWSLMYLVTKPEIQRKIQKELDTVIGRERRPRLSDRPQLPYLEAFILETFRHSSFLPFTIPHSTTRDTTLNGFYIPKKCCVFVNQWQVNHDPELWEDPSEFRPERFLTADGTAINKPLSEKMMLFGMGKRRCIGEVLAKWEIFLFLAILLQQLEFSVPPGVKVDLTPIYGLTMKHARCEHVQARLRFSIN

Cytochrome P450 2C19 = Cytochrome P450 2C19 (Homo sapiens, UniProt P33261); test: Cytochrome panel assay with activity outcomes. Panel member name: p450-cyp2c19 Compounds with AC50 equal or less than 10 uM are considered active; format: functional; settings: read-out: AC50
Cytochrome P450 2C19, sequence (P33261 whole entry): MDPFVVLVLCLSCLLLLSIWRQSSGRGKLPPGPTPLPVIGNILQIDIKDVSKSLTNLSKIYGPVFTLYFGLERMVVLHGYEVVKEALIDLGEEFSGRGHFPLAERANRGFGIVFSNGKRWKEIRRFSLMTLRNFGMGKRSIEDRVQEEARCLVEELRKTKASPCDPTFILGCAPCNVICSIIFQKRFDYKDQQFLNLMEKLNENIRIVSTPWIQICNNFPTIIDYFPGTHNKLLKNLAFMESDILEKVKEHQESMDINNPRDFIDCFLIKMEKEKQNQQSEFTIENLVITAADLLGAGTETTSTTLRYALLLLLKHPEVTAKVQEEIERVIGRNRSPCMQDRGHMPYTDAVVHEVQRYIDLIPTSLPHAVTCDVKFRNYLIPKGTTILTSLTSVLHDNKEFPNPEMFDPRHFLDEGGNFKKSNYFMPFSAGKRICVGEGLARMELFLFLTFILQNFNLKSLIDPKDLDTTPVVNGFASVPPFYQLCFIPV

[11] = Trypanosoma cruzi growth suppression in host cells – NIH3T3 host cells, beta-gal luminescence, confirmation (AID 2044); format: functional, cell-based;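 also: intracellular parasites grown in NIH/3T3 mouse fibroblasts as host cells; luminescent beta-galactosidase reporter signal from transgenic T. cruzi replicating inside host cells; inhibitors lower the luminescence signal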
[12] = NIH3T3 cell viability loss – ATP luminescence, mouse fibroblasts, counter-screen, dose response (AID 2010); format: functional, cell-based;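 also: cells exposed to compound for about 90 hours before reading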
Large T antigen = Large T antigen (Simian virus 40, UniProt P03070); format: functional, Betapolyomavirus macacae;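 also: Confirmatory-stage PubChem screen for compounds that inhibit SV40 T antigen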
Large T antigen, sequence (P03070 whole entry): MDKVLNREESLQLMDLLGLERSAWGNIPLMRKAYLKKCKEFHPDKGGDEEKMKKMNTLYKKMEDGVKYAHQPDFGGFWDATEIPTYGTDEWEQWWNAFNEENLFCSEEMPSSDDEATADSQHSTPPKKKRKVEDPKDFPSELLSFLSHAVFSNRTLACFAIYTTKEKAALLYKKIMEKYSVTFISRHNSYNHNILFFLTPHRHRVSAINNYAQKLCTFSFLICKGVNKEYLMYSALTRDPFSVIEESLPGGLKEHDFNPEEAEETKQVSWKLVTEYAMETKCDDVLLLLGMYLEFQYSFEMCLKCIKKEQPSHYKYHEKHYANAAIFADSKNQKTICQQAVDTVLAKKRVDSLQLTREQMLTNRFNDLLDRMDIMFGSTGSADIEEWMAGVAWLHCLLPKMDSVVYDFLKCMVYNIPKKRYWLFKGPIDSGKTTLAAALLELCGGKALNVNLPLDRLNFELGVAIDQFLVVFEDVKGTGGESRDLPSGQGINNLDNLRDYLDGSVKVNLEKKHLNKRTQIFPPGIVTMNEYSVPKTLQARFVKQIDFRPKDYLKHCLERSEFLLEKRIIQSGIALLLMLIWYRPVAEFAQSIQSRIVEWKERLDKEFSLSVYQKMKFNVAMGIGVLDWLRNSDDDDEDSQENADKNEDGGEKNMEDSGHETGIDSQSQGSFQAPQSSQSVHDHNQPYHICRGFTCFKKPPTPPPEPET

Cytochrome P450 3A4 = Cytochrome P450 3A4 (Homo sapiens, UniProt P08684);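 also: CYP3A4 tested as one member of a cytochrome P450 panel screen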
Cytochrome P450 3A4, sequence (P08684 whole entry): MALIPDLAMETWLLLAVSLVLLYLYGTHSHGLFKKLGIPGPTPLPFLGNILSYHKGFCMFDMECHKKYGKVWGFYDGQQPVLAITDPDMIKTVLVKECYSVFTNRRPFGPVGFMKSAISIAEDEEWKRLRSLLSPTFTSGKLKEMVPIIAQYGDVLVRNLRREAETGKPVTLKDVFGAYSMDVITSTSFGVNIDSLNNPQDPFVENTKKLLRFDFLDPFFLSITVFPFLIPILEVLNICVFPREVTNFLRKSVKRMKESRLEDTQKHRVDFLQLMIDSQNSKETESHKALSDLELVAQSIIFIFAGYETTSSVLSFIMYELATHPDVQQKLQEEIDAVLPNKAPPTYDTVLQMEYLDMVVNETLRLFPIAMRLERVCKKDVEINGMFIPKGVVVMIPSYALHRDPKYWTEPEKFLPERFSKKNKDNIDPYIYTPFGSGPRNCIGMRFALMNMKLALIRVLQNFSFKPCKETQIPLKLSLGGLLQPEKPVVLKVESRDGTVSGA

[13] = viability of uninfected HEp-2 cells – cell-based, HTS, cytotoxicity control for RSV inhibitor project, dose response (AID 2410); format: functional; settings: human respiratory syncytial virus
[14] = target: T4, Rac GTPase-activating protein 1 (Homo sapiens, UniProt Q9H0H5); test: blockers of MgcRacGAP-driven Rac1 GTP hydrolysis – biochemical, ADP Hunter fluorescence, primary and confirmatory, confirmation (AID 624330); format: functional
T4 sequence (Q9H0H5 whole entry): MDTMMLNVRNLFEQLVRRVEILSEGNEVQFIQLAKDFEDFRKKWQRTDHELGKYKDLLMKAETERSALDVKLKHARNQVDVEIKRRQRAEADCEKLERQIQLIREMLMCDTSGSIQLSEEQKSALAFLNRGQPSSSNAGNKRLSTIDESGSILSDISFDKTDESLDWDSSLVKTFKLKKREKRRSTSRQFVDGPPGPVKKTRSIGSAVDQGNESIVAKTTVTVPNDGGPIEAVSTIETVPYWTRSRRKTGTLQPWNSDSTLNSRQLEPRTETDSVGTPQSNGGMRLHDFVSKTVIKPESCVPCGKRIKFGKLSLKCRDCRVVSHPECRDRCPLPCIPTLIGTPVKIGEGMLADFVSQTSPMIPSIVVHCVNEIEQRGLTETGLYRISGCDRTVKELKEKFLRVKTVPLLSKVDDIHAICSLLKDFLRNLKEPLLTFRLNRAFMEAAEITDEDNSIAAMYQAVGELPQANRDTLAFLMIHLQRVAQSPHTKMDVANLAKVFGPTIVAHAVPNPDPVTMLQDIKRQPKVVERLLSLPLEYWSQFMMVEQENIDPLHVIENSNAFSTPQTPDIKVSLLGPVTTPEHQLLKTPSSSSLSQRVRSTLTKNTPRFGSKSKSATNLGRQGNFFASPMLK

INS1 = test: INS-1E survival protection against cytokine death – cell-based, luminescence, retest, dose response (AID 449756); format: functional; settings: Rattus norvegicus;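 also: cell death triggered by IL-1 beta plus TNF-alpha plus IFN-gamma mixture; protective hits raise ATP signal compared with cytokine alone wells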
[15] = Luminescence Cell-Based Dose Retest to Confirm Inhibitors of Cancer Stem Cells. [Related pubchem assays (depositor defined):AID2717, AID2721]; format: functional; settings: Homo sapiens
[16] = THP-1 cell cytotoxicity, dose response, cytotoxicity control for non-replicating M. tuberculosis project (AID 489025); format: functional

FAD-linked sulfhydryl oxidase ALR, sequence (P55789 whole entry): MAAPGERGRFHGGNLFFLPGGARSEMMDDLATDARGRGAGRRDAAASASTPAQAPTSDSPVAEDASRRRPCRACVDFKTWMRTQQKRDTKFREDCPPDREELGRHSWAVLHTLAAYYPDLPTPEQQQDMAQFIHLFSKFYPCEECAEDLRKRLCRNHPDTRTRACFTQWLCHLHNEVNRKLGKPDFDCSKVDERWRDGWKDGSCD

COc1cccc(-c2nnc(S)n2Cc2ccco2)c1OC
AC50 [1]: 3.65 µM (active)

COc1ccc([N+](=O)[O-])cc1NC(=O)CCCOc1ccccc1
IC50 (Fatty acid synthase [2]): 8.62 µM (active)
IC50 (Fatty acid synthase [3]): 7.3 µM (active)

COc1ccccc1CNC(=O)CCN1C(=O)COc2ccc(C)cc21
AC50 (Cytochrome P450 2C9): inconclusive

COCCN(C(=O)CSc1nnc(-c2cccc(C)c2)n1C)c1c(N)n(Cc2ccccc2)c(=O)[nH]c1=O
EC50 [4]: > 160 µM (inactive)
EC50 [5]: > 38 µM (not active)

Cc1ccc(C(=O)N/C(=C\c2cccc([N+](=O)[O-])c2)C(=O)Nc2cccc(C(=O)O)c2)cc1
IC50 (Fatty acid synthase [2]): 8.2 µM (active)
IC50 (Fatty acid synthase [3]): 15.1 µM (active)

CCCCNC(=O)c1cc(-c2ccc(F)cc2)on1
EC50 (cells [6]): 45 µM (active)
EC50 (cells [7]): 8.85 µM (active)
EC50 [8]: 11.9 µM (active)
EC50 (H4): 13.1 µM (active)
EC50 [9]: 24.3 µM (active)

COc1cccc(-n2c(SCC(=O)OC(C)C)nnc2-c2cccnc2)c1
IC50 [10]: > 50 µM (not active)

C=C(C)CC1Nc2ccccc2NC1CC(=C)C (centres undefined)
AC50 [1]: 5.56 µM (active)

O=[N+]([O-])c1ccc(NCc2ccccc2)nc1
IC50 [10]: 34.1 µM (not active)

CCC(C(=O)O)N1C(=O)/C(=C/C(C)=C/c2ccccc2)SC1=S (centres undefined)
IC50 (Genome polyprotein): 37.8 µM (active)

Cc1ccc(C(=O)Nc2ccc(N3CCOCC3)nc2)cc1
AC50 (Cytochrome P450 1A2): 17.8 µM (inconclusive)
AC50 (Cytochrome P450 2C19): 2.82 µM (inconclusive)
AC50 (Cytochrome P450 2C9): inconclusive

COC(=O)c1ccc(COc2cc([N+](=O)[O-])cc3cccnc23)o1
IC50 (Fatty acid synthase [2]): 11.6 µM (active)
IC50 (Fatty acid synthase [3]): 13.3 µM (active)

S=C(NCc1ccc(Cl)cc1)NC1CCN(Cc2ccccc2)CC1
EC50 [11]: 2.86 µM (active)
EC50 [12]: > 30 µM (not active)
IC50 [10]: 18.6 µM (not active)

CCN(Cc1ccccc1)C(=O)COC(=O)c1cc(Cl)nc(Cl)c1
IC50 (Fatty acid synthase [2]): 9.26 µM (active)
IC50 (Fatty acid synthase [3]): 9.66 µM (active)

Oc1nc2cc(NCc3ccc(F)cc3)ccc2[nH]1
IC50 (Large T antigen): 13.2 µM (active)

FC(F)(F)c1cccc(N2CCN(CC3CC4C=CC3C4)CC2)c1 (centres undefined)
AC50 (Cytochrome P450 1A2): 11.2 µM (inconclusive)
AC50 (Cytochrome P450 3A4): 39.8 µM (inconclusive)
AC50 (Cytochrome P450 2C9): inconclusive

COc1ccc(NC(=O)c2[nH]cnc2C(=O)N[C@H](C)c2ccccc2)cc1
IC50 (Fatty acid synthase [2]): 11.5 µM (active)
IC50 (Fatty acid synthase [3]): 10.9 µM (active)

Cc1ccc(S(=O)(=O)Nc2ccccc2C=O)cc1
AC50 (Cytochrome P450 2C9): inconclusive

Cn1c(N)c(C(=O)COC(=O)c2ncc(Cl)c(Cl)c2Cl)c(=O)n(C)c1=O
IC50 [10]: 9.79 µM (active)

CC1=NOC(=O)/C1=C\c1ccc(-c2ccc(Br)cc2C(=O)O)o1
IC50 (Genome polyprotein): 20.1 µM (active)

CC(C)(C)c1ccc(C(=O)Nc2cccc([N+](=O)[O-])c2)cc1
CC50 [13]: 5.38 µM (active)
IC50 [10]: 2.13 µM (not active)

O=C(CNCc1ccco1)Nc1ccc(N2CCCCCC2)cc1
IC50 [14]: 84.4 µM (active)
AC50 [1]: 0.224 µM (active)

CC1(C)C2CCC1(C)C(OCC[N+](C)(C)CC(=O)OC1CCCCC1)C2 (centres undefined)
EC50 [4]: > 150 µM (inactive)
EC50 [5]: 0.743 µM (active)

COc1ccccc1NC(=O)c1sc2ncn(Cc3ccccc3C)c(=O)c2c1C
AC50 (Cytochrome P450 2C9): inconclusive

CCOC(=O)N1CCN(Cc2nc3ccc([N+](=O)[O-])cc3c(=O)n2-c2cccc(OC)c2)CC1
IC50 (Fatty acid synthase [2]): 3.04 µM (active)
IC50 (Fatty acid synthase [3]): 3.46 µM (active)

Cc1cc(C)nc(Nc2n[nH]c(COc3cccc4ccccc34)n2)n1
AC50 (Cytochrome P450 3A4): 2.24 µM (inconclusive)
AC50 (Cytochrome P450 2C9): inconclusive

COc1cccc(OC)c1C(=O)Nc1ccc(N2CCCCC2)cc1
AC50 [1]: 7.85 µM (active)

Nc1cc(S(=O)(=O)N2CCCCC2)ccc1Oc1ccccc1
IC50 [10]: 20.8 µM (not active)

Cc1ccc(Nc2c3c(nc4ccccc24)CCC3)cc1
AC50 (INS1): 8.95 µM (active)
EC50 (cells [6]): > 350 µM (not active)
EC50 (cells [7]): > 350 µM (not active)

CCCCN1C(=O)NC(=O)/C(=C(\C)NCCc2ccccc2)C1=O
IC50 [10]: 17.7 µM (not active)

CCCn1c(CCC(=O)O)ccc1-c1cccs1
AC50 [1]: 8.5 µM (active)

Nc1ccc2oc3ccc(N)cc3c(=O)c2c1
AC50 [1]: 1.07 µM (active)

C=CCOc1ccc(CNc2ccc3[nH]c(O)nc3c2)cc1OCC
IC50 (Large T antigen): 20.5 µM (active)

O=S(=O)(Nc1ccc(-c2csc(-c3ccccc3)n2)cc1)c1ccccc1
IC50 (Fatty acid synthase [2]): 8.85 µM (active)
AC50 [15]: 5.04 µM (active)
IC50 (Fatty acid synthase [3]): 9.18 µM (active)

O=C1CC(SC(=NCc2ccc3c(c2)OCO3)Nc2ccccc2)C(=O)N1c1ccccc1 (centres undefined)
IC50 [10]: > 50 µM (not active)

CC(C)NC(=O)c1ccc(-c2cccc(C(F)(F)F)c2)o1
AC50 (Cytochrome P450 2C9): inconclusive

Cc1ccc(-c2ccc(/C=N/NC(=O)CN3CCCC3)o2)cc1Cl
CC50 [16]: 37.8 µM (active)

COc1cc(/C=N/NC(=O)c2ccncc2)ccc1O
IC50 (Large T antigen): 6.8 µM (active)

O=C(COc1ccccc1[N+](=O)[O-])N/N=C/c1ccc(O)cc1
IC50 [14]: 80.8 µM (active)
IC50 (Large T antigen): 9.26 µM (active)

O/N=C(\c1ccc2c(c1)OCCO2)C1CCCCC1
IC50 [10]: 25.1 µM (not active)

O=C(N/N=C\c1ccccc1OCc1ccccc1)c1ccco1
CC50 [16]: 39.6 µM (active)

Sc1nncn1/N=C/c1cccc(Oc2ccccc2)c1
AC50 [1]: 2.09 µM (active)

N#C/C(=C\c1ccc(O)c(O)c1)C(=O)NCc1ccccc1
AC50 (Cytochrome P450 2C19): 25.1 µM (inconclusive)
AC50 (Cytochrome P450 2C9): inconclusive
IC50 (Large T antigen): 14.6 µM (active)

O=c1c(-c2ccc(O)cc2)coc2cc(O[C@@H]3O[C@H](CO)[C@@H](O)[C@H](O)[C@H]3O)ccc12 [DAIDZIN]
IC50 (Large T antigen): > 100 µM (active)

C1=Cc2ccccc2Nc2ccccc21 [IMINOSTILBENE]
IC50 [14]: 14.9 µM (active)
IC50 (Large T antigen): 14.3 µM (active)
